Assay results as given in ChEMBL document CHEMBL1909046, “DrugMatrix in vitro pharmacology data”.

How the values were obtained:
[1] = biological target: T1, C-C chemokine receptor type 4 (Homo sapiens, UniProt P51679); type: cell membranes, Chem-1, Membrane; conditions: chem-1; note: in other assays of this panel Not Active means under 50% inhibition at 10 µM
T1 sequence (P51679 whole entry): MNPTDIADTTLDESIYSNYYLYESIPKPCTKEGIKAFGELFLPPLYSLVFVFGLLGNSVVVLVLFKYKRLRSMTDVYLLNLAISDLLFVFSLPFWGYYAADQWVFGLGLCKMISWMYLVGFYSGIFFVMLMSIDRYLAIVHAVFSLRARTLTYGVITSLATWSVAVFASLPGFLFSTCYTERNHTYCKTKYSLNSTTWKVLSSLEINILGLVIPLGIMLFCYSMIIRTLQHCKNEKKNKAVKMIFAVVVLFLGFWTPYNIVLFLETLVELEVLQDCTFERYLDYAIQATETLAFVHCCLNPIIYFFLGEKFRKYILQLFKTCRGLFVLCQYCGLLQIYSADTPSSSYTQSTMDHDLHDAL

[2] = DRUGMATRIX: Nicotinic Acetylcholine radioligand binding (ligand: [125I] Epibatidine); type: cell membranes, Membrane; conditions: imr-32; Not Active = under 50% inhibition at 10 µM
[3] = biological target: Cannabinoid receptor 1 (Homo sapiens, UniProt P21554); type: cell membranes, Membrane; conditions: chem-1; note: in other assays of this panel Not Active means under 50% inhibition at 10 µM
Sequence of Cannabinoid receptor 1 (P21554 whole entry): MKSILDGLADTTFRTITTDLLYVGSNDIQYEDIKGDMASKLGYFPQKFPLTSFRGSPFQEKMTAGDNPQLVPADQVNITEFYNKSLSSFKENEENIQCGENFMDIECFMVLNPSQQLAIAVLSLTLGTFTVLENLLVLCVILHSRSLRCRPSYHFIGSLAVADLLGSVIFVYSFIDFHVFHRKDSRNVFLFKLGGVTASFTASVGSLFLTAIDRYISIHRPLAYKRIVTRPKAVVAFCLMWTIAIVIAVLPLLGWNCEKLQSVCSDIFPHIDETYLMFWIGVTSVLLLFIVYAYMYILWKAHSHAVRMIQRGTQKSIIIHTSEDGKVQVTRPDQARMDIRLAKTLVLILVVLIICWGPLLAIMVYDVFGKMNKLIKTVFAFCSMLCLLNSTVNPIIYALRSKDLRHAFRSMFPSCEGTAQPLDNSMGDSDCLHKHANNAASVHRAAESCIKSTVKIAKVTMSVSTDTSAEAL

[4] = biological target: Substance-P receptor (Homo sapiens, UniProt P25103); type: cell membranes, CHO, Membrane; conditions: cho; note: in other assays of this panel Not Active means under 50% inhibition at 10 µM
Sequence of Substance-P receptor (P25103 whole entry): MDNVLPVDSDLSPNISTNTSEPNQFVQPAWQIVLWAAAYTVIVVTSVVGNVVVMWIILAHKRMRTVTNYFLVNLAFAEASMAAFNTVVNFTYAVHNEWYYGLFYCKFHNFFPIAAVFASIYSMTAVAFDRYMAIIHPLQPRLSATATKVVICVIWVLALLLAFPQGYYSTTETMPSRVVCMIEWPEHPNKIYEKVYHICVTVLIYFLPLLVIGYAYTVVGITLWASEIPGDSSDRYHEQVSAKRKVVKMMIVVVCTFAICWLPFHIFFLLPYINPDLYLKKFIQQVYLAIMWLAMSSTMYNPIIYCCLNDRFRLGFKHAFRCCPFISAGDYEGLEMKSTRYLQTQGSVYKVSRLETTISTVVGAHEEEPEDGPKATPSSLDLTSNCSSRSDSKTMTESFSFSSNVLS

[5] = biological target: Cytochrome P450 2D6 (Homo sapiens, UniProt P10635); conditions: bti-tn-5b1-4; note: in other assays of this panel Not Active means under 50% inhibition at 10 µM
Sequence of Cytochrome P450 2D6 (P10635 whole entry): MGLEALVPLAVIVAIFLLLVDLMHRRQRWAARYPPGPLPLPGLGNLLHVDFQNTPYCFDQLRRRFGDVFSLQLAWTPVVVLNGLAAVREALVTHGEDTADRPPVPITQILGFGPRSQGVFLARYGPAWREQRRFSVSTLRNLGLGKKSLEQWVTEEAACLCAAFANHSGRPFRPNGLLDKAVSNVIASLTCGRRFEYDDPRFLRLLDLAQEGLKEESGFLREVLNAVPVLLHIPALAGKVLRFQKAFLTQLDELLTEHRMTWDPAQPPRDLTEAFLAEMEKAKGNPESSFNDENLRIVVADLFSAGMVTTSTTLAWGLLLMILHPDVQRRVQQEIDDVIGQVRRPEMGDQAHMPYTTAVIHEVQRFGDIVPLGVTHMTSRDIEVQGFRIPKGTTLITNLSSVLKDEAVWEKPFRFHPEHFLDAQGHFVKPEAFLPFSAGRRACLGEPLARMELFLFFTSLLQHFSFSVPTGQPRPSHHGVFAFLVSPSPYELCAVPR

[6] = biological target: T2, Muscarinic acetylcholine receptor M2 (Homo sapiens, UniProt P08172); type: cell membranes, CHO-K1, Membrane; note: in other assays of this panel Not Active means under 50% inhibition at 10 µM
T2 sequence (P08172 whole entry): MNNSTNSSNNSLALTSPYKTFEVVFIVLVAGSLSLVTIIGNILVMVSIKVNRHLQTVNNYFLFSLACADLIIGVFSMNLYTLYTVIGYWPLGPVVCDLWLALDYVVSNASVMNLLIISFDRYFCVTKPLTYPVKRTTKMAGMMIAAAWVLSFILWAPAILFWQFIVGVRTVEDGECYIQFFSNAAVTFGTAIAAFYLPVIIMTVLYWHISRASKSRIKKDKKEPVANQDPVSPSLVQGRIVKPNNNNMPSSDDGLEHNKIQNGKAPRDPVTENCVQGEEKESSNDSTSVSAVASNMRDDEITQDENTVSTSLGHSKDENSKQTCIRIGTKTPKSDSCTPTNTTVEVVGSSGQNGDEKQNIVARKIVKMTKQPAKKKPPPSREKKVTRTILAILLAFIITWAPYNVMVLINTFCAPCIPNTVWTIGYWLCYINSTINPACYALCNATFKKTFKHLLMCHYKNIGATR

[7] = biological target: Cytochrome P450 2C19 (Homo sapiens, UniProt P33261); conditions: bti-tn-5b1-4; note: in other assays of this panel Not Active means under 50% inhibition at 10 µM
Sequence of Cytochrome P450 2C19 (P33261 whole entry): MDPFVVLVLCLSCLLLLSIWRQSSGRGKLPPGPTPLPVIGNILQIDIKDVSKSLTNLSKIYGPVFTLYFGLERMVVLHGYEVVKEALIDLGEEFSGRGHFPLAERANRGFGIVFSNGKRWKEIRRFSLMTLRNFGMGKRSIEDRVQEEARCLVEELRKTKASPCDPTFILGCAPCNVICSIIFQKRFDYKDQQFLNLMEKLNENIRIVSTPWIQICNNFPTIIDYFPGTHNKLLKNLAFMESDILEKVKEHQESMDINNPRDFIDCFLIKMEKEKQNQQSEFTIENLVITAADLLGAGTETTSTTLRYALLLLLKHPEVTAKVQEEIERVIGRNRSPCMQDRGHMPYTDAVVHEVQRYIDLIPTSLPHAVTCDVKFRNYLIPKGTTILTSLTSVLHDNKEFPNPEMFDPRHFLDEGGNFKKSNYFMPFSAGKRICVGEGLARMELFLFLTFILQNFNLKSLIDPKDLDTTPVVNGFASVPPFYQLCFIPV

[8] = biological target: Beta-1 adrenergic receptor (Homo sapiens, UniProt P08588); test: DRUGMATRIX: Adrenergic beta1 radioligand binding (ligand: [125I] Cyanopindolol); type: cell membranes, CHO-K1, Membrane; conditions: cho-k1; Not Active = under 50% inhibition at 10 µM
Sequence of Beta-1 adrenergic receptor (P08588 whole entry): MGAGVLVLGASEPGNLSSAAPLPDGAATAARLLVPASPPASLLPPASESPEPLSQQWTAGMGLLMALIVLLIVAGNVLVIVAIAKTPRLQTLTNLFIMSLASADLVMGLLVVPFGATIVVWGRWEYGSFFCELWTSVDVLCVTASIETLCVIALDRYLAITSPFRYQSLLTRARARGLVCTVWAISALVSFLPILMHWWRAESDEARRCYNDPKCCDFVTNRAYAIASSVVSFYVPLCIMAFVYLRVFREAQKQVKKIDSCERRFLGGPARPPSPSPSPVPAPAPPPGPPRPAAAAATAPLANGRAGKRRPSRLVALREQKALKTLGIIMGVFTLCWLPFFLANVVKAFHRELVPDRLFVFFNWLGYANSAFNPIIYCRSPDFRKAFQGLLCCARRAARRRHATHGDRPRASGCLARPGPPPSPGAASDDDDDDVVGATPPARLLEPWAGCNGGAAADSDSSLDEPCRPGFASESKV

Compound	IC50 [1]	IC50 [2]	Ki [2]	IC50 [3]	IC50 [4]	IC50 [5]	Ki [5]	IC50 ([6]; cho-k1)	IC50 [7]	Ki [7]	IC50 [8]	IC50 ([6]; read-out: IC50)	Ki ([6]; read-out: Ki)
COCCc1ccc(OCC(O)CNC(C)C)cc1 (stereo not given) [METOPROLOL]	Not Active	Not Active	Not Active	Not Active	Not Active	Not Active	Not Active	Not Active					
COc1cc2nc(N3CCN(C(=O)C4COc5ccccc5O4)CC3)nc(N)c2cc1OC (stereo not given) [DOXAZOSIN]	Not Active	Not Active	Not Active	Not Active	Not Active	Not Active	Not Active	Not Active	Not Active	Not Active			
CCCN1C[C@H](CSC)C[C@@H]2c3cccc4[nH]cc(c34)C[C@H]21 [PERGOLIDE]	Not Active	Not Active	Not Active	Not Active	Not Active			Not Active	Not Active	Not Active	Not Active		
CN(C)C(=O)Oc1cc(OC(=O)N(C)C)cc(C(O)CNC(C)(C)C)c1 (stereo not given) [BAMBUTEROL]	Not Active	Not Active	Not Active	Not Active	Not Active			Not Active	Not Active	Not Active	Not Active		
Cc1ccc(-c2cc(C(F)(F)F)nn2-c2ccc(S(N)(=O)=O)cc2)cc1 [CELECOXIB]	Not Active	Not Active	Not Active	Not Active	Not Active			Not Active	Not Active	Not Active	Not Active		
CC(NC(C)(C)C)C(=O)c1cccc(Cl)c1 (stereo not given) [BUPROPION]	Not Active	Not Active	Not Active	Not Active	Not Active	Not Active	Not Active	Not Active			Not Active		
CN(Cc1ccc(C(C)(C)C)cc1)Cc1cccc2ccccc12 [BUTENAFINE]	Not Active	Not Active	Not Active	Not Active	Not Active			Not Active	Not Active	Not Active	Not Active		
CCn1cc(C(=O)O)c(=O)c2cc(F)c(N3CCNCC3)cc21 [NORFLOXACIN]	Not Active	Not Active	Not Active	Not Active	Not Active	Not Active	Not Active	Not Active			Not Active		
Cc1ccc(N(CC2=NCCN2)c2cccc(O)c2)cc1 [PHENTOLAMINE]	Not Active	Not Active	Not Active	Not Active	Not Active			Not Active	Not Active	Not Active	Not Active		
CN(C)c1nc(N(C)C)nc(N(C)C)n1 [ALTRETAMINE]	Not Active	Not Active	Not Active	Not Active	Not Active			Not Active			Not Active		
N=C(N)NCCN1CCCCCCC1 [GUANETHIDINE]	Not Active	Not Active	Not Active	Not Active	Not Active			Not Active			Not Active		
CCOc1ccc(NC(C)=O)cc1 [PHENACETIN]	Not Active	Not Active	Not Active	Not Active	Not Active	Not Active	Not Active	Not Active			Not Active		
CN(C)CCCN1c2ccccc2Sc2ccc(Cl)cc21 [CHLORPROMAZINE]	Not Active	Not Active	Not Active	Not Active	Not Active						Not Active		
C[C@H](CCC(=O)O)[C@H]1CC[C@H]2[C@@H]3[C@H](O)C[C@@H]4C[C@H](O)CC[C@]4(C)[C@H]3C[C@H](O)[C@]12C [CHOLIC ACID]	Not Active	Not Active	Not Active	Not Active	Not Active	Not Active	Not Active	Not Active			Not Active		
CNCCCN1c2ccccc2CCc2ccccc21 [DESIPRAMINE]	Not Active	Not Active	Not Active	Not Active	Not Active	Not Active	Not Active	Not Active	Not Active	Not Active			
CC(C)[C@@]1(NC(=O)[C@@H]2C[C@@H]3c4cccc5[nH]cc(c45)C[C@H]3N(C)C2)O[C@@]2(O)[C@@H]3CCCN3C(=O)[C@H](Cc3ccccc3)N2C1=O.CS(=O)(=O)O [DIHYDROERGOCRISTINE MESYLATE]	Not Active	Not Active	Not Active	Not Active	Not Active	Not Active	Not Active	Not Active			Not Active		
C1CCC(C(CC2CCCCN2)C2CCCCC2)CC1 (stereo not given) [PERHEXILINE]	Not Active	Not Active	Not Active	Not Active	Not Active			Not Active	Not Active	Not Active	Not Active		
C[C@]12CC[C@@H]3c4ccc(O)cc4CC[C@H]3[C@@H]1CCC2=O [ESTRONE]	Not Active	Not Active	Not Active	Not Active	Not Active			Not Active			Not Active		
CNCCc1ccccn1 [BETAHISTINE]	Not Active	Not Active	Not Active	Not Active	Not Active	Not Active	Not Active	Not Active	Not Active	Not Active			
Nc1c(Br)cc(Br)cc1CN[C@H]1CC[C@H](O)CC1 [AMBROXOL]	Not Active	Not Active	Not Active	Not Active	Not Active			Not Active			Not Active		
CN(C)CCCN1c2ccccc2Sc2ccccc21 [PROMAZINE]	Not Active	Not Active	Not Active	Not Active	Not Active						Not Active	1090 nM	387 nM
CC1(C)S[C@@H]2[C@H](NC(=O)Cc3ccccc3)C(=O)N2[C@H]1C(=O)O [PENICILLIN G]	Not Active	Not Active	Not Active	Not Active	Not Active			Not Active			Not Active		
CC(C)CN(C[C@@H](O)[C@H](Cc1ccccc1)NC(=O)O[C@H]1CCOC1)S(=O)(=O)c1ccc(N)cc1	Not Active	Not Active	Not Active	Not Active	Not Active			Not Active	Not Active	Not Active	Not Active		
Nc1nc(N)nc(-c2cc(Cl)ccc2Cl)n1.O=C(O)/C=C\C(=O)O [IRSOGLADINE MALEATE]	Not Active	Not Active	Not Active	Not Active	Not Active	Not Active	Not Active	Not Active	Not Active	Not Active			
Nc1ncn([C@@H]2O[C@H](CO)[C@@H](O)[C@H]2O)c(=O)n1 [AZACITIDINE]	Not Active	Not Active	Not Active	Not Active	Not Active	Not Active	Not Active	Not Active			Not Active		
CCCCN1CCCC[C@H]1C(=O)Nc1c(C)cccc1C [LEVOBUPIVACAINE]	Not Active	Not Active	Not Active	Not Active	Not Active			Not Active	Not Active	Not Active	Not Active		
CC(C)(Oc1ccc(Cl)cc1)C(=O)O [CLOFIBRIC ACID]	Not Active	Not Active	Not Active	Not Active	Not Active			Not Active			Not Active		
